Measured values from patent US20070249590A1, “Substituted indolo[2,3-a]pyrrolo[3,4-c]carbazole compounds useful in treating kinase disorders” (priority 2005, published 2007).

Each molecule was assayed against T1, JAK3 (JH1 and JH2 domain) (Homo sapiens, UniProt P52333) (assay: JAK3 Kinase Assay (ELISA of peptide substrate phosphorylation)). Settings: purified JAK3 enzyme, 10 μM ATP, biotinylated peptide substrate, 1 hour at room temperature.
T1 sequence (P52333 521-1111 limits assumed): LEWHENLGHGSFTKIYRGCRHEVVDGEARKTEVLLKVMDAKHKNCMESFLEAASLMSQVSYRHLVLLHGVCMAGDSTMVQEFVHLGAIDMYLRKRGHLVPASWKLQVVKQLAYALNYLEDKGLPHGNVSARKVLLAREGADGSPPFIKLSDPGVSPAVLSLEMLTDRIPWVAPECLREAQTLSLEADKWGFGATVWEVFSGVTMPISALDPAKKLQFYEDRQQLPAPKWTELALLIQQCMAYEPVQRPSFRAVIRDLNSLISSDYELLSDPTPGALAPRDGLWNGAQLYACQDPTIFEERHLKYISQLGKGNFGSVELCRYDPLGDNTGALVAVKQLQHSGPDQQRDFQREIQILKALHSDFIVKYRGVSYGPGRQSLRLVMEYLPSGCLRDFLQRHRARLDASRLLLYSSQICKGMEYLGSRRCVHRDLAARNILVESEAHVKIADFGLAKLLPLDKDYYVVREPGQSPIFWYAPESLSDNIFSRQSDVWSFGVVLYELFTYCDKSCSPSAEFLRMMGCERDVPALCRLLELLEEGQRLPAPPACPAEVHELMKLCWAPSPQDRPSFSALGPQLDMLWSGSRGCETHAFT
Assay type: biochemical
In short: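 Sf21-baculovirus-expressed JAK3 (JH1+JH2), glutathione-bead purified, with biotinylated peptide substrate (in buffer containing 10 μM ATP) in HEPES pH 7.5/MgCl2/DTT, 1 h RT. Product was captured on Neutravidin, detected with HRP anti-phosphotyrosine (PY99)/TMB, OD 450/650 nm. Triplicate 16-point half-log series from 200 μM gave IC50; otherwise % inhibition at 1 μM.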

Row | IC50 [nM] | Compound
1 | 178 | CN(C)CCCNC(=O)OC1CCn2c3ccccc3c3c4c(c5c6ccccc6n(c5c32)CC1)C(=O)NC4 (centres unmarked) [Cpd 186, 12,13-{3-[(3-dimethylamino-prop-1-yl)carbamoyloxy]-pentan-1,5-yl}-6,7,12,13-tetrahydro-5-oxo-5H-indolo[2,3-a]pyrrolo[3,4-c]carbazole]
2 | 108 | O=C1NC(=O)c2c1c1c3ccccc3n3c1c1c2c2ccccc2n1CC(OC(=O)N1CCOCC1)C(O)C3 (centres unmarked) [Cpd 98, 12,13-[2-(morpholin-4-yl-carbonyloxy)-3-hydroxy-butan-1,4-yl]-12,13-dihydro-5,7-dioxo-6H-indolo[2,3-a]pyrrolo[3,4-c]carbazole]
3 | 94 | O=C1NC(=O)c2c1c1c3ccccc3n3c1c1c2c2ccccc2n1CC(O)(C(=O)NCCc1cccs1)C(O)C3 (centres unmarked) [Cpd 128, 12,13-{2-[(2-thien-2-yl-ethyl)carbamoyl]-2,3-dihydroxy-butan-1,4-yl}-12,13-dihydro-5,7-dioxo-6H-indolo[2,3-a]pyrrolo[3,4-c]carbazole]
4 | 237 | CN(C)CCNC(=O)/C=C/c1ccc2c(c1)c1c3c(c4c5ccccc5n5c4c1n2CC(CO)C5)CNC3=O (centres unmarked) [Cpd 222, 3-{(2E)-2-[(2-dimethylamino-ethyl)carbamoyl]ethenyl}-12,13-(2-hydroxymethyl-propan-1,3-yl)-6,7,12,13-tetrahydro-5-oxo-5H-indolo[2,3-a]pyrrolo[3,4-c]carbazole]
5 | > 200 | O=C1NCc2c1c1c3ccccc3n3c1c1c2c2ccccc2n1CC(O)(COC(=O)N1CCN(C2CCCCC2)CC1)C3 (centres unmarked) [Cpd 142, 12,13-{2-hydroxy-2-[(4-cyclohexyl-piperazin-1-yl)carbonyloxymethyl]-propan-1,3-yl}-6,7,12,13-tetrahydro-5-oxo-5H-indolo[2,3-a]pyrrolo[3,4-c]carbazole]
6 | > 400 | CCCNC(=O)OC1CCn2c3ccccc3c3c4c(c5c6ccccc6n(c5c32)C1)C(=O)NC4=O (centres unmarked) [Cpd 38, 12,13-[2-(prop-1-ylcarbamoyloxy)-butan-1,4-yl]-12,13-dihydro-5,7-dioxo-6H-indolo[2,3-a]pyrrolo[3,4-c]carbazole]
7 | 29 | COCCNC(=O)OC1Cn2c3ccccc3c3c4c(c5c6ccccc6n(c5c32)CC1O)C(=O)NC4=O (centres unmarked) [Cpd 83, 12,13-{2-[(2-methoxy-ethyl)carbamoyloxy]-3-hydroxy-butan-1,4-yl}-12,13-dihydro-5,7-dioxo-6H-indolo[2,3-a]pyrrolo[3,4-c]carbazole]
8 | 32 | O=C1NCc2c1c1c3ccccc3n3c1c1c2c2ccccc2n1C[C@H](O)[C@@H](O)C3 [Cpd 18, 12,13-[(2S,3S)-dihydroxy-butan-1,4-yl]-6,7,12,13-tetrahydro-5-oxo-5H-indolo[2,3-a]pyrrolo[3,4-c]carbazole]
9 | 12 | O=C(NC1CCNC1)OC1CCn2c3ccccc3c3c4c(c5c6ccccc6n(c5c32)C1)C(=O)NC4=O (centres unmarked) [Cpd 72, 12,13-[2-(pyrrolidin-3-yl-carbamoyloxy)-butan-1,4-yl]-12,13-dihydro-5,7-dioxo-6H-indolo[2,3-a]pyrrolo[3,4-c]carbazole]
10 | 15 | CN(C)C1CCN(C(=O)C2(O)Cn3c4ccccc4c4c5c(c6c7ccccc7n(c6c43)CC2O)C(=O)NC5=O)C1 (centres unmarked) [Cpd 119, 12,13-{2-[(3-dimethylamino-pyrrolidin-1-yl)carbonyl]-2,3-dihydroxy-butan-1,4-yl}-12,13-dihydro-5,7-dioxo-6H-indolo[2,3-a]pyrrolo[3,4-c]carbazole]
11 | 8 | O=C1NC(=O)c2c1c1c3ccccc3n3c1c1c2c2ccccc2n1CC(O)CCC3 (centres unmarked) [Cpd 8]
12 | 54 | O=C1NC(=O)c2c1c1c3ccccc3n3c1c1c2c2ccccc2n1CC(O)(C(=O)N1CCOCC1)C(O)C3 (centres unmarked) [Cpd 121, 12,13-[2-(morpholin-4-yl-carbonyl)-2,3-dihydroxy-butan-1,4-yl]-12,13-dihydro-5,7-dioxo-6H-indolo[2,3-a]pyrrolo[3,4-c]carbazole]
13 | 295 | O=C1NC(=O)c2c1c1c3ccccc3n3c1c1c2c2ccccc2n1CC(OC(=O)N1CCN(c2ccncc2)CC1)C(O)C3 (centres unmarked) [Cpd 96, 12,13-{2-[(4-pyridin-4-yl-piperazin-1-yl)carbonyloxy]-3-hydroxy-butan-1,4-yl}-12,13-dihydro-5,7-dioxo-6H-indolo[2,3-a]pyrrolo[3,4-c]carbazole]
14 | 314 | O=C1NC(=O)c2c1c1c3ccccc3n3c1c1c2c2ccccc2n1CC(OC(=O)N1CCN(c2ccncc2)CC1)CC3 (centres unmarked) [Cpd 55, 12,13-{2-[(4-pyridin-4-yl-piperazin-1-yl)carbonyloxy]-butan-1,4-yl}-12,13-dihydro-5,7-dioxo-6H-indolo[2,3-a]pyrrolo[3,4-c]carbazole]
15 | 65 | CN(C)c1ccc(CNC(=O)OC2Cn3c4ccccc4c4c5c(c6c7ccccc7n(c6c43)CC2O)C(=O)NC5=O)cc1 (centres unmarked) [Cpd 93, 12,13-{2-[(4-dimethylamino-benzyl)carbamoyloxy]-3-hydroxy-butan-1,4-yl}-12,13-dihydro-5,7-dioxo-6H-indolo[2,3-a]pyrrolo[3,4-c]carbazole]
16 | 107 | CC(C)OCc1ccc2c(c1)c1c3c(c4c5ccccc5n5c4c1n2CC(CO)C5)CNC3=O (centres unmarked) [Cpd 211, 9-(isopropoxymethyl)-12,13-(2-hydroxymethyl-propan-1,3-yl)-6,7,12,13-tetrahydro-5-oxo-5H-indolo[2,3-a]pyrrolo[3,4-c]carbazole]
17 | 16 | COC1Cn2c3ccccc3c3c4c(c5c6ccccc6n(c5c32)CC1OC)C(=O)NC4=O (centres unmarked) [Cpd 10, 12,13-(2,3-dimethoxy-butan-1,4-yl)-12,13-dihydro-5,7-dioxo-6H-indolo[2,3-a]pyrrolo[3,4-c]carbazole]
18 | 180 | CN(C)CCN(C)C(=O)OC1Cn2c3ccccc3c3c4c(c5c6ccccc6n(c5c32)CC1O)C(=O)NC4=O (centres unmarked) [Cpd 107, 12,13-(2-{[N-methyl-N-(2-dimethylamino-ethyl)]carbamoyloxy}-3-hydroxy-butan-1,4-yl)-12,13-dihydro-5,7-dioxo-6H-indolo[2,3-a]pyrrolo[3,4-c]carbazole]
19 | 70 | CC(C)OCc1ccc2c(c1)c1c3c(c4c5cc(Br)ccc5n5c4c1n2CC(CO)C5)C(=O)NC3 (centres unmarked) [Cpd 209, 3-bromo-9-(isopropoxymethyl)-12,13-(2-hydroxymethyl-propan-1,3-yl)-6,7,12,13-tetrahydro-5-oxo-5H-indolo[2,3-a]pyrrolo[3,4-c]carbazole]
20 | 310 | O=C1NCc2c1c1c3cc(/C=C/c4ccccn4)ccc3n3c1c1c2c2ccccc2n1CC(CO)C3 (centres unmarked) [Cpd 216, 3-[(2E)-2-pyridin-2-yl-ethenyl]-12,13-(2-hydroxymethyl-propan-1,3-yl)-6,7,12,13-tetrahydro-5-oxo-5H-indolo[2,3-a]pyrrolo[3,4-c]carbazole]
21 | 346 | O=C1NCc2c1c1c3ccccc3n3c1c1c2c2ccccc2n1CC(COC(=O)N1CC[C@@H](O)C1)C3 (stereo partly drawn) [Cpd 168, 12,13-(2-{[(3R)-3-hydroxy-pyrrolidin-1-yl]carbonyloxymethyl}-propan-1,3-yl)-6,7,12,13-tetrahydro-5-oxo-5H-indolo[2,3-a]pyrrolo[3,4-c]carbazole]
22 | ~1000 | O=C(NC1CCN(Cc2ccccc2)CC1)OCC1Cn2c3ccccc3c3c4c(c5c6ccccc6n(c5c32)C1)C(=O)NC4 (centres unmarked) [Cpd 163, 12,13-{2-[(1-benzyl-piperidin-4-yl)carbamoyloxymethyl]-propan-1,3-yl}-6,7,12,13-tetrahydro-5-oxo-5H-indolo[2,3-a]pyrrolo[3,4-c]carbazole]
23 | 72 | C=C1Cn2c3ccccc3c3c4c(c5c6ccccc6n(c5c32)C1)C(=O)NC4 [Cpd 22, 12,13-(2-methylene-propan-1,3-yl)-6,7,12,13-tetrahydro-5-oxo-5H-indolo[2,3-a]pyrrolo[3,4-c]carbazole]
